Data taken from PMC5779043 (Journal of the American Heart Association: Cardiovascular …, 2017).

Key:
[1] = system: intraluminal occlusion of the middle cerebral artery (MCA); test: Grip test after MCA occlusion; assay type: in vivo, Sprague-Dawley rats; conditions: 7 and 14 days after ischemia, 12 nmol/kg i.v. before MCA occlusion, n=8/group
[2] = system: intracerebral hemorrhage and traumatic brain injury; conditions: intravenous administration; cited from earlier work

Substance	grip test vs control [1]	cerebral blood flow [2]	functional outcome [2]	inflammation and brain injury [2]
human BNP [hBNP]	no differences were observed			
nesiritide		improved the cerebral blood flow	better functional outcome	reduced the inflammation and brain injury
